Here are results for seven molecules from paper PMC11647895 (Journal of Medicinal Chemistry, 2024).

One data set relates to TK6 cells. The data set is described as follows: DNA damage response. Type of data set: cell-based, human.
For another data set, the target named is T1, KLHL26 BTB domain (Homo sapiens, UniProt Q53HC5).
T1 sequence (Q53HC5 34-161): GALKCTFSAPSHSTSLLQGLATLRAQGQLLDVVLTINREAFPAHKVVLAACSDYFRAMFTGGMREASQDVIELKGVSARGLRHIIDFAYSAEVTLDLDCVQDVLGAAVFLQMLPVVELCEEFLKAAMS
The data set is described as follows: LC-MS, covalent adduct formation with KLHL26. It counts as binding.

Data set [1] can be described thus: Reactivity with glutathione in pH 7.4 phosphate buffer. It counts as physicochemical. The following applies: 1 mM compound, 10 mM glutathione, 10% DMSO, 54 h, 37 °C.
The next data set concerns the target BTB domain of KEAP1 (Homo sapiens, UniProt Q14145). Put plainly: Intact mass spectrometry, covalent adduct formation with KEAP1. The following applies: intact MS / LC-MS.
In data set [2] the test system is Nrf2 KO mouse embryonic fibroblast cells. Put plainly: ARE signal in Nrf2 KO cells.
The next data set has as its system 36 receptor Cerep panel. Put plainly: Cerep receptor panel screen. Conditions: 10 μM, 36 receptors.
Data set [3] deals with C151A mutant of KEAP1 BTB domain (Homo sapiens, UniProt Q14145, C151A). The data set is described as follows: Intact mass spectrometry, covalent adduct formation with KEAP1 C151A. The following applies: intact MS.
Chain of C151A mutant of KEAP1 BTB domain (Q14145 48-213 C151A): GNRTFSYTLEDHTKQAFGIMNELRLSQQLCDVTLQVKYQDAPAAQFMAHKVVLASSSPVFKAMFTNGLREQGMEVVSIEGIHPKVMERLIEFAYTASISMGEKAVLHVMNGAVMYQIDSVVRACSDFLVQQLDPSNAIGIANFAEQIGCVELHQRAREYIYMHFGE
Data set [4] deals with Keap1-NRF2 nuclear translocation. It counts as cell-based. The following applies: Nrf2 translocation assay, engineered U2OS cell line.

Chain of BTB domain of KEAP1 (Q14145 48-213): as the sequence (Q14145 48-213 C151A) above, with A104C counted along it

For the molecule `CCP1(=O)CCN(c2sc(S(=O)(=O)CC)nc2S(=O)(=O)c2cccc(Cl)c2Cl)CC1` [Compound 27, 1-[4-(2,3-Dichlorophenyl)sulfonyl-2-ethylsulfonyl-thiazol-5-yl]-4-ethyl-1,4λ^5-azaphosphinane 4-Oxide], the “DDR (TK6) with S9” value with TK6 cells (with S9 metabolic activation) is listed as “aneugen”. Further, in the data set on TK6 cells (without S9), the “DDR (TK6)” value is reported as “negative”. For the same molecule, the “covalent adduct formation / binding to KLHL26 BTB domain” value (“covalent adduct formation / binding” below) on KLHL26 BTB domain is recorded as “no binding”.
As for `CCS(=O)(=O)c1nc(S(=O)(=O)c2ccccc2Cl)c(N2CCN(C)C(=O)[C@H]2C)s1` [Compound 23, (3R)-4-[4-(2-Chlorophenyl)sulfonyl-2-ethylsulfonyl-thiazol-5-yl]-1,3-dimethyl-piperazin-2-one], the “covalent adduct formation / binding” value at KLHL26 BTB domain is on record as “no binding”.
With `Cc1ccc(S(=O)(=O)c2nc(S(=O)(=O)c3ccccc3)sc2N2CCN(C)CC2)cc1` [Compound 2, 2-(Benzenesulfonyl)-5-(4-methylpiperazin-1-yl)-4-(p-tolylsulfonyl)thiazole], the conversion with glutathione in data set [1] stood at 30%.
Consider `CCS(=O)(=O)c1nc(S(=O)(=O)c2ccccc2Cl)c(N2CCN(C)C(=O)C2)s1` [Compound 7, 4-[4-(2-Chlorophenyl)sulfonyl-2-ethylsulfonyl-thiazol-5-yl]-1-methyl-piperazin-2-one], for which the “covalent adduct formation with KEAP1 BTB” value on BTB domain of KEAP1 is listed as “a single adduct was formed”. In addition, the ARE signal result in data set [2] is “did not observe any of the ARE signal”. In the data set on 36 receptor Cerep panel, the off-target activity entry is recorded as “did not observe any significant off-target activity”. Also, the “covalent adduct formation with KEAP1 BTB C151A mutant” value in [3] is on record as “no covalent adduct”.
For “4-(2-Chlorophenyl)sulfonyl-2-ethylsulfonyl-5-(3-pyridyl)thiazole Hydrochloride [Compound 17]”, the “U2OS EC50” value in data set [4] is “completely inactive”.
For the molecule `CCS(=O)(=O)c1nc(S(=O)(=O)c2ccccc2C#N)c(N2CCN(C)C(=O)[C@H]2C)s1` [Compound 25, 2-[5-[(2R)-2,4-Dimethyl-3-oxo-piperazin-1-yl]-2-ethylsulfonyl-thiazol-4-yl]sulfonylbenzonitrile], on KLHL26 BTB domain, the “covalent adduct formation / binding” value is recorded as “no binding”.
A word on the EC50: it is the concentration giving half of the maximal effect. `CC1(C)CC[C@]2(C(=O)O)CC[C@]3(C)[C@H](C(=O)C=C4[C@@]5(C)C=C(C#N)C(=O)C(C)(C)[C@@H]5CC[C@]43C)[C@@H]2C1` [bardoxolone] came in with a concentration giving a half-maximal response (EC50) with ARE (Nrf2 activation) of 9.2 nM.
